In PubChem BioAssay (NCI):
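How tested: cells in 96-well plates exposed to compound for 48 hours at five concentrations. GI50 = concentration required for 50% inhibition of growth. TGI: concentration producing complete growth inhibition.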

Tests used:
Experiment in all cases: NCI tumour cell line growth inhibition, 48 h
A498 renal = system: A498 renal
SF-268 CNS = system: SF-268 CNS
HOP-62 NSCLC = system: HOP-62 NSCLC
EKVX NSCLC = system: EKVX NSCLC
SK-OV-3 ovarian = system: SK-OV-3 ovarian
HCT-116 colon = system: HCT-116 colon
M14 melanoma = system: M14 melanoma
DU-145 prostate = system: DU-145 prostate
SK-MEL-28 melanoma = system: SK-MEL-28 melanoma
OVCAR-5 ovarian = system: OVCAR-5 ovarian

SMILES | TGI (A498 renal) | TGI (SF-268 CNS) | TGI (HOP-62 NSCLC) | TGI (EKVX NSCLC) | TGI (SK-OV-3 ovarian) | TGI (HCT-116 colon) | TGI (M14 melanoma) | TGI (DU-145 prostate) | TGI (SK-MEL-28 melanoma) | TGI (OVCAR-5 ovarian) | GI50 (A498 renal) | GI50 (SF-268 CNS) | GI50 (HOP-62 NSCLC) | GI50 (EKVX NSCLC) | GI50 (SK-OV-3 ovarian) | GI50 (HCT-116 colon) | GI50 (M14 melanoma) | GI50 (DU-145 prostate) | GI50 (SK-MEL-28 melanoma) | GI50 (OVCAR-5 ovarian)
CN1CCN(C2CC(=O)c3c(Cl)sc(Cl)c32)CC1 (centres undefined) | > 75 µM | > 31.1 µM | 42.6 µM | > 55.5 µM | > 90 µM | 19.2 µM | 20.7 µM | 30.2 µM | 20.2 µM | > 60.8 µM |  |  |  |  |  |  |  |  |  | 
CC(C)(C)C1=CC(O)(c2c3ccccc3c(C3(O)C=C(C(C)(C)C)C(=O)C(C(C)(C)C)=C3)c3ccccc23)C=C(C(C)(C)C)C1=O | 0.65 µM | > 100 µM | > 100 µM | > 100 µM | > 100 µM | > 100 µM | > 100 µM | > 100 µM | > 100 µM | > 100 µM |  |  |  |  |  |  |  |  |  | 
COc1ccc(Nc2ccnc3cc(Cl)ccc23)cc1CN(CCCl)CCCl | 6.47 µM | 4.89 µM | 4.01 µM | > 21.5 µM |  | 3.84 µM | 7.92 µM | 3.54 µM | 14.9 µM | 5.94 µM | 2.12 µM | 1.15 µM | 1.37 µM | 1.9 µM | 1.56 µM | 1.14 µM | 2.14 µM | 0.901 µM | 3.59 µM | 2.84 µM
CCOC(=O)/C=C/C(Br)=C(Br)/C=C/C(=O)OCC | 74.3 µM | 40.4 µM | 36.7 µM | 36.2 µM | 47.8 µM | 17 µM | 30.3 µM | 29.1 µM | 33.4 µM | 34.9 µM |  |  |  |  |  |  |  |  |  | 
CC1CC2OC(=N)C1(C#N)C2(C#N)C#N (centres undefined) | 42 µM | 66.3 µM | 35.2 µM | 51.1 µM | > 100 µM | 43.3 µM | > 100 µM | > 100 µM | > 100 µM | 48.5 µM |  |  |  |  |  |  |  |  |  | 
[O-][n+]1cc(SCc2ccccc2)ncc1SCc1ccccc1 | > 10 µM | > 10 µM | > 10 µM | > 10 µM | > 10 µM | > 10 µM | > 10 µM | > 10 µM | > 10 µM | > 10 µM |  |  |  |  |  |  |  |  |  | 
O=C(CSCC(=O)N/N=C\c1cccc(Br)c1)N/N=C\c1cccc(Br)c1 |  | 37.9 µM | 31.7 µM | 63.7 µM | 40.6 µM | 27.9 µM | 49.9 µM | 48.3 µM | 41.7 µM | 33.6 µM |  |  |  |  |  |  |  |  |  | 
COC1OC2COC(c3ccccc3)OC2C(OC(=S)c2ccccc2)C1O (centres undefined) | > 100 µM | > 100 µM | 41.1 µM | 5.82 µM | 58.2 µM |  | > 100 µM | > 100 µM | > 100 µM | > 100 µM |  |  |  |  |  |  |  |  |  | 
COc1ccc(Cn2nc(OCc3ccccc3)c3cc([N+](=O)[O-])ccc32)cc1 | > 100 µM | > 100 µM | > 100 µM |  | > 100 µM |  | > 100 µM | > 100 µM | > 100 µM | > 100 µM |  |  |  |  |  |  |  |  |  | 
Nc1nn2cc(-c3ccccc3)[n+](CC(=O)c3ccccc3)c2s1 | > 100 µM | 50.6 µM | 87.5 µM | > 100 µM | > 100 µM | 30.3 µM | 40.6 µM | > 100 µM |  | 53.6 µM |  |  |  |  |  |  |  |  |  | 
CCOC(=O)N1c2c(c3ccccc3n2C(=O)OCC)C(=O)C(OC)N1C(=O)OCC (centres undefined) | 88.6 µM |  | > 100 µM | > 100 µM | > 100 µM | 86.9 µM | > 100 µM | > 100 µM | 53.6 µM | > 100 µM |  |  |  |  |  |  |  |  |  | 
O=S1(=O)OCCOS(=O)(=O)C1S(=O)(=O)c1cccc2ccccc12 |  |  | > 100 µM | > 100 µM |  | 57.1 µM | > 100 µM | > 100 µM | > 100 µM | > 100 µM |  |  |  |  |  |  |  |  |  | 
O=C(OCC(OC(=O)c1ccccc1)C1CC(C(O)C2CCCCC2)C(=O)O1)c1ccccc1 (centres undefined) | > 100 µM | > 100 µM | > 100 µM | > 100 µM | > 100 µM | > 100 µM | > 100 µM | > 100 µM |  | > 100 µM |  |  |  |  |  |  |  |  |  | 
Cc1nc2cccc(F)c2c(=O)n1-c1nnc(C2CC2)s1 |  | > 10 µM | > 10 µM | > 10 µM | > 10 µM | > 10 µM | > 10 µM | > 10 µM | > 10 µM | > 10 µM |  |  |  |  |  |  |  |  |  | 
O=C(c1cccs1)N(C(=O)N1CCCCC1)c1ccccc1 | > 100 µM | > 100 µM |  | > 100 µM | > 100 µM | > 100 µM | > 100 µM | > 100 µM | > 100 µM |  |  |  |  |  |  |  |  |  |  | 
CC1=CCC(=O)[C@]2(C)C(CC(=O)O)[C@]3(C)C4=C(C)C(c5ccoc5)C[C@@H]4O[C@@H]3[C@H](O)[C@@H]12 (some centres undefined) | > 100 µM | > 100 µM |  | > 100 µM | > 100 µM | > 100 µM | > 100 µM | > 100 µM | > 100 µM | > 100 µM |  |  |  |  |  |  |  |  |  | 
Cc1cccc2c1C(=O)/C(=C/c1ccccc1C(=O)O)C2 | > 100 µM | > 100 µM | > 100 µM | > 100 µM |  | > 100 µM | > 100 µM | > 100 µM | > 100 µM | > 100 µM |  |  |  |  |  |  |  |  |  | 
O=c1cc(-c2ccccc2)[nH]c2c(F)ccc(F)c12 |  | > 100 µM | > 100 µM |  | > 100 µM | > 100 µM | > 100 µM |  | > 100 µM | > 100 µM |  |  |  |  |  |  |  |  |  | 
Cc1cc(=O)oc2c(CN(CCCl)CCCl)c(O)ccc12 | > 100 µM | > 100 µM | > 100 µM | > 100 µM |  | > 100 µM | > 100 µM | > 100 µM | > 100 µM | > 100 µM |  |  |  |  |  |  |  |  |  | 
COc1ccc(C(OCC2OC(n3ccc(Oc4c(F)c(F)c(F)c(F)c4F)nc3=O)CC2OP(OCCC#N)N(C(C)C)C(C)C)(c2ccccc2)c2ccc(OC)cc2)cc1 (centres undefined) | > 100 µM | > 100 µM | > 100 µM |  | > 100 µM | > 100 µM | > 100 µM | > 100 µM | > 100 µM | > 100 µM |  |  |  |  |  |  |  |  |  | 
